Reference: patent US8241863B2, “Identification of an evolutionarily conserved pathway mediating transrepression of inflammatory response genes by nuclear receptors” (The Regents of the University of California, priority 2005, dated 2012)
Entries after “also recorded” stand apart in the source; their conditions may differ.

Assays:
iNOS gene [1] = assay: iNOS expression in LPS-treated primary peritoneal macrophages by real-time PCR, LXR ligands; assay type: cell-based, mouse; conditions: for repression of iNOS activation: oxysterols 5 μM, LPS, 6 h, less potently than GW3965 1 μM where active (FIG. 14 upper)
Procedure: Thioglycollate-elicited macrophages were isolated by peritoneal lavage 3 days following peritoneal injection of 2.5 ml 3% thioglycollate (DIFCO). Cells were plated in RPMI medium 1640 and 10% fetal bovine serum. After 5 h the medium was removed and cells were fed with fresh medium. For RNAi experiments, smart-pool siRNAs (Dharmacon) against NCoR and Ubc9 were transfected into primary macrophages using lipofectamine 2000 (Invitrogen), incubated for 48 h and validated by Q-PCR and Western Blotting. LPS (Sigma) was used at a concentration of 1 μg/ml and GW3965 (obtained under MTA from GlaxoSmithKline) was used at a concentration of 1 μM.
Total RNA (isolated by RNeasy kit, Qiagen) was prepared from primary macrophages pretreated with 1 μM GW3965 (2 h) before 1 μg/ml LPS stimulation (6 h). One microgram of total RNA was used for CDNA synthesis, and 1 μl of cDNA was used for real time PCR using iNOS or inflammatory-gene-specific primers.
(§1) Macrophages were transfected with siRNA for 48 h and then stimulated with LPS ([…]) for 6 h in the absence or presence of LXR ligand (GW3965, 1 μM). iNOS expression in peritoneal macrophages was evaluated by real-time quantitative PCR and iNOS promoter activation in RAW264.7 was evaluated by luciferase assay. […] Primary macrophages were treated with LPS ([…]) with or without the LXR ligand (GW3965, 1 μM) for 1 h.
(§2) Primary mouse peritoneal macrophages were treated in the upper panel with LPS and the indicated ligands and harvested for real time PCR analysis of iNOS expression 6 h later. In the lower panel, cells were treated with the indicated ligands for 18 hours and harvest for real time PCR analysis of ABCA1 expression. GW3965 was used at a concentration of 1 μM. The oxysterols were used at a concentration of 5 μM.

ABCA1 gene = assay: ABCA1 expression in primary macrophages by real-time PCR; assay type: cell-based, mouse; conditions: oxysterols 5 μM, 18 hours; less potently than GW3965 1 μM for the first three (FIG. 14 lower)
Procedure: as §2

iNOS promoter [2] = assay: Chromatin immunoprecipitation on the iNOS promoter in primary macrophages or RAW 264.7 cells; assay type: cell-based, mouse; conditions: primary macrophages, ligand 1 h then LPS 1 h (FIG. 1e)
Procedure: 2-4×10^6 primary macrophages or RAW 264.7 cells were used per experimental point. Cells were pre-treated with 1 μM Ro (1 h) and stimulated with 1 μg/ml LPS (1 h). Cross-linking was carried out for 10 min with 1% formaldehyde and cells lysed with 1% SDS, 10 mM EDTA, 50 mM Tris-HCl pH 8.1 and sonicated 10 sec-5 times. Five μg antibody conjugated to sheep anti-rabbit dyna-beads (Dyna1) were used for immunoprecipitations. For PPARγ, 2 μg of H-100 plus 3 μg of PPARγ antibody from Geneka were used in combination. Alternatively, anti-HA protein A sepharose beads (Covance) were used for wild-type and mutant HA-tagged PPARγ proteins. HDAC3 and p65 antibodies were from SantaCruz. NCoR antibody was from Affinity Bioreagents, Inc. Beads were washed twice with wash buffer: 150 mM NaCl, 0.1% SDS, 1% Triton X-100, 2 mM EDTA, 20 mM Tris-HCl and subsequently with buffer: 0.25 M LiCl, 1% NP-40, 1% deoxycholate, 1 mM EDTA, 10 mM Tris-HCl. Beads were eluted in 300 μl of TE with 1% SDS and 0.1 M NaCO3. Elute samples and 10% inputs were reversed at 65° C. for a minimum of 6 h. […]
In FIG. 1e, primary macrophages were pretreated with Ro or GW0072 for 1 h followed by 1 h LPS induction and formaldehyde crosslinking. A 150 base pair region of the iNOS promoter spanning the most proximal NF-κB site to the start of transcription was analyzed by ChIP assays using the indicated antibodies.

PPARγ = molecular target: T1, PPARγ (Homo sapiens, UniProt P37231); conditions: cited from earlier work
T1 sequence (P37231 1-505): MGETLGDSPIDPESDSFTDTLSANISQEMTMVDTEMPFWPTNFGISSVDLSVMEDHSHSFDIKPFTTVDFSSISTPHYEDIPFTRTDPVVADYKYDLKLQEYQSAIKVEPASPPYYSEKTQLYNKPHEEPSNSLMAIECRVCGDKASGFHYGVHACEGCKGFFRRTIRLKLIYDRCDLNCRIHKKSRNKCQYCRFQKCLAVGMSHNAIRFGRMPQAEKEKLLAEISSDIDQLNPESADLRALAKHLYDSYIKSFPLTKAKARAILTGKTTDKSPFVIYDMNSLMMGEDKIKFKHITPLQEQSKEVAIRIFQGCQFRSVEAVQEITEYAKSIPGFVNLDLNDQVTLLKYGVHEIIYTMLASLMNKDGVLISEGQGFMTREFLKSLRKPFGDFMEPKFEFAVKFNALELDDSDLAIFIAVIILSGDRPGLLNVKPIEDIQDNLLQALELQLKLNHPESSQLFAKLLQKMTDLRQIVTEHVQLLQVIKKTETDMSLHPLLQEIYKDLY

iNOS promoter [3] = assay: iNOS-luciferase reporter in RAW264.7 cells transfected with LXRα; assay type: cell-based, mouse; conditions: RAW264.7, LXRα
Procedure: The RAW264.7 mouse macrophage cell line was transiently transfected with iNOS or ABCA1 promoters directing luciferase expression, pCMXhLYRα, FLAGhLXRβ, and their mutants. For transrepression experiments, wildtype LXRα and LXRβ or LXR mutants were transfected at a 3:1 (LXR to reporter plasmid) ratio using Superfect reagent (Qiagen). For siRNA experiments, RAW264.7 cells were transfected with siRNAs (40 nM) using Superfect reagent for 48 h before activation with LXR ligands and LPS induction. […]
Macrophages were transfected with siRNA for 48 h and then stimulated with LPS ([…]) for 6 h in the absence or presence of LXR ligand (GW3965, 1 μM). iNOS expression in peritoneal macrophages was evaluated by real-time quantitative PCR and iNOS promoter activation in RAW264.7 was evaluated by luciferase assay. […]

iNOS promoter [4] = assay: ChIP for LXR and NCoR on the iNOS promoter in primary macrophages, LXR ligand; assay type: cell-based, mouse
Procedure: For each experimental condition, 20×10^6 primary macrophages were used. Cells were pre-treated with 1 μM GW3965 (1 h) and stimulated with 1 μg/ml LPS (1 h) before crosslinking for 10 min with 1% formaldehyde. Crosslinked adducts were resuspended and sonicated resulting in DNA fragments of 300-900 bp. Anti-LXR (Calbiochem) or anti-NCoR (Affinity Bioreagents) antibodies were used. Protein-bound, immunoprecipitated DNA was reverse cross-linked at 65° C. overnight and then purified using PCR purification Kit (Qiagen). A 150-bp region of the iNOS promoter was amplified by real time PCR spanning the most proximal NF-κB site to the start of transcription.
as §1

[5] = tested on: Ccl3, Ccl7, Cxcl10 and Tgtp; assay: Microarray analysis of primary macrophages treated with LPS with or without PPARγ agonist; assay type: cell-based, mouse; conditions: LPS (FIG. 2e)
Procedure: In FIG. 2a, CHIP analysis of NCoR and Ubc5 occupancy on the iNOS promoter was performed in primary macrophages stimulated with LPS for the indicated times in the presence or absence of Ro. In FIG. 2b, Semi-quantitative RT-PCR analysis of iNOS and GAPDH mRNA in primary macrophages. Cells were treated with Ro 1 h before (pre) or 1 h following (post) stimulation with LPS. RNA was isolated for analysis 6 h after LPS treatment. In FIG. 2c, ChIP analysis for p65 and PPARγ on iNOS and CD36 promoters in primary macrophages was performed as described in FIG. 2a. In FIG. 2d, ChIP analysis of the iNOS promoter for NCoR and PPARγ was carried out in primary macrophages 1 h following LPS stimulation. Ro was given 1 h before (pre) or 1 h after (post) stimulation. Cells were transfected with control or NCoR-specific siRNAs 48 h prior to LPS stimulation. In FIG. 2e, Expression data derived from microarray analysis of primary macrophages treated with LPS in the presence or absence of the PPARγ-specific agonist GW7845. In FIG. 2f, ChIP analysis for NCoR and PPARγ on the indicated promoters was carried out using primary macrophages as in 2d.

iNOS gene [6] = assay: iNOS mRNA in LPS-stimulated primary macrophages (Northern blot / semi-quantitative RT-PCR), PPARγ ligands; assay type: cell-based, mouse; conditions: as little as 10 nM Trichostatin A 1 h, then 1 μM Ro 2 h, LPS 6 h (FIG. 1c)
Procedure: Primary macrophages were elicited by intra-peritoneal injection with 2 ml of thioglycollate. […] For RNAi experiments, smart-pool siRNAs (Dharmacon) against PIAS1, Ubc9, HDAC3, HDAC7 or control non-specific and previously validated NCoR were transected using lipofectamine 2000 (Invitrogen) into primary macrophages and incubated for 48 h.
Total RNA (Trizol method) was prepared from thioglycollate-elicited primary macrophages pre-treated with 1 μM Ro (2 h) prior to 1 μg/ml LPS stimulation (6 h). One μg of total RNA was used for cDNA synthesis using the First-strand synthesis RT system (Invitrogen). Two μl of cDNA was used for PCR using iNOS or inflammatory gene specific primers amplifying a 0.7 kb region of cDNA. GAPDH cDNA samples were carried out for 22 to 25 cycles. […]
Total RNA was analyzed for iNOS and GAPDH mRNA by Northern Blotting. […] Cells were stimulated with LPS for 6 h and total RNA was analyzed as in FIG. 1a. […] A 150 base pair region of the iNOS promoter spanning the most proximal NF-κB site to the start of transcription was analyzed by ChIP assays using the indicated antibodies. […]
In FIG. 2a, CHIP analysis of NCoR and Ubc5 occupancy on the iNOS promoter was performed in primary macrophages stimulated with LPS for the indicated times in the presence or absence of Ro. In FIG. 2b, Semi-quantitative RT-PCR analysis of iNOS and GAPDH mRNA in primary macrophages. […]

Question: With CC(C)CC[C@@H](O)[C@@H](C)[C@H]1CC[C@H]2[C@@H]3CC=C4C[C@@H](O)CC[C@]4(C)[C@H]3CC[C@]12C [22R-hydroxycholesterol] as the compound, how does the “repression of iNOS activation” value (iNOS gene [1]) read?
Answer: repress iNOS activation

Question: What about the “induction of ABCA1 expression” value (ABCA1 gene) of the same compound?
Answer: induce ABCA1 expression

Question: What does the source list for C[C@H](CC[C@@H]1OC1(C)C)[C@H]1CC[C@H]2[C@@H]3CC=C4C[C@@H](O)CC[C@]4(C)[C@H]3CC[C@]12C [24(S), 25-epoxycholesterol]?
Answer: repression of iNOS activation (iNOS gene [1]): repress iNOS activation; induction of ABCA1 expression (ABCA1 gene): induce ABCA1 expression

Question: What does the source list for CC(C)C(O)CC[C@@H](C)[C@H]1CC[C@H]2[C@@H]3CC=C4C[C@@H](O)CC[C@]4(C)[C@H]3CC[C@]12C (stereo partly drawn) [24-hydroxycholesterol]?
Answer: repression of iNOS activation (iNOS gene [1]): repress iNOS activation; induction of ABCA1 expression (ABCA1 gene): induce ABCA1 expression

Question: For C[C@H](CCCC(C)(C)O)[C@H]1CC[C@H]2[C@@H]3CC=C4C[C@@H](O)CC[C@]4(C)[C@H]3CC[C@]12C [25 hydroxycholesterol], which “repression of iNOS activation” value (iNOS gene [1]) is on record?
Answer: do not repress iNOS activation

Question: What about the “induction of ABCA1 expression” value (ABCA1 gene) of the same compound?
Answer: activate ABCA1

Question: For C[C@@H](CO)CCC[C@@H](C)[C@H]1CC[C@H]2[C@@H]3CC=C4C[C@@H](O)CC[C@]4(C)[C@H]3CC[C@]12C [27-hydroxycholesterol], which “repression of iNOS activation” value (iNOS gene [1]) is on record?
Answer: do not repress iNOS activation

Question: And the “induction of ABCA1 expression” value (ABCA1 gene)?
Answer: activate ABCA1

Question: For CCCCCCCC1SC(CC(=O)N(Cc2ccccc2)Cc2ccccc2)C(=O)N1CCCCc1ccc(C(=O)O)cc1 (stereo not drawn) [GW0072], which “NCoR and HDAC3 occupancy of iNOS promoter after LPS stimulation” value (iNOS promoter [2]) is on record?
Answer: both NCoR and HDAC3 remained on the iNOS promoter

Question: What about the “dissociation of NCoR from PPARγ” value (PPARγ) of the same compound?
Answer: effective at dissociating NCoR from PPARγ; also recorded: disrupts direct interactions between NCoR and PPARγ

Question: What about the “stimulation of interactions with nuclear receptor coactivators” value (PPARγ) of the same compound?
Answer: only weakly stimulates

Question: What does the source list for O=C(O)Cc1cccc(OCCCN(Cc2cccc(C(F)(F)F)c2Cl)CC(c2ccccc2)c2ccccc2)c1 [GW3965]?
Answer: effect of NCoR-specific siRNA on ligand-dependent repression of LPS-induced iNOS expression (iNOS gene [1]; peritoneal macrophages, GW3965 1 μM, LPS 1 mg/ml 6 h (FIG. 10A)): abolishes; effect of Ubc9-specific siRNA on ligand-dependent repression of LPS-induced iNOS expression (iNOS gene [1]; peritoneal macrophages, GW3965 1 μM, LPS 1 mg/ml 6 h (FIG. 11A)): significantly impairs; effect of NCoR-specific siRNA on ligand-dependent repression of iNOS promoter activation (iNOS promoter [3]; GW3965 1 μM (FIG. 10B)): abolishes; effect of Ubc9-specific siRNA on ligand-dependent repression of iNOS promoter activation (iNOS promoter [3]; GW3965 1 µM (FIG. 11B)): significantly impairs; LXR recruitment on the iNOS promoter (iNOS promoter [4]; GW3965 1 μM, LPS 1 h (FIG. 10C)): ligand-dependent and NCoR-dependent LXR recruitment; LPS-stimulated release of NCoR from the iNOS promoter (iNOS promoter [4]; peritoneal macrophages, GW3965 1 μM (FIG. 10D)): inhibits

Question: For COC(=O)c1ccccc1N[C@@H](Cc1ccc(OCCc2nc(-c3ccccc3)oc2C)cc1)C(=O)O [GW7845], which “effect on LPS induction of Ccl3, Ccl7, Cxcl10 and Tgtp” value [5] is on record?
Answer: repression of the LPS response

Question: Which “effect on rosiglitazone-dependent transrepression of iNOS” value (iNOS gene [6]) does the source give for CC(/C=C/C(=O)NO)=C\[C@@H](C)C(=O)c1ccc(N(C)C)cc1 [Trichostatin A] here?
Answer: reversed rosiglitazone-dependent transrepression of iNOS
